Test results: US10934277B2, “Enantiomerically purified GPER agonist for use in treating disease states and conditions” (Linnaeus Therapeutics, Inc., priority 2018, dated 2021)
≈ marks a conversion by molar mass, not a printed value. Where “and” joins values, the source holds several entries; their conditions need not be identical. Equal values may be shown once.

How the values were obtained:
[1] = Approximate solubility of SRR G-1 Form A in solvents; assay type: physicochemical
[2] = Solubility measurement in pH buffers; assay type: physicochemical; settings: 37° C., 24 hrs; for solubility at 24 h: aqueous buffer, thermodynamic from solid, read-out: Solubility; for Form Conversion: XRPD of residual solids
[3] = Kinetic solubility measurement in bio-relevant media; assay type: physicochemical; settings: 37° C.; for Form Change: SGF; for solubility at 1 h / solubility at 2 h / solubility at 4 h / solubility at 24 h: thermodynamic from solid
[4] = Dynamic Vapor Sorption/Desorption (DVS); assay type: physicochemical
Source text: The weight change through the sorption/desorption cycle was less than 0.3% weight. Hysteresis was not observed. The material recovered from the Dynamic Vapor Sorption experiment was Form A by XRPD.
Moisture sorption/desorption data were collected on a VTI SGA-100 Vapor Sorption Analyzer. NaCl and PVP were used as calibration standards. Samples were not dried prior to analysis. Sorption and desorption data were collected over a range from 5% to 95% RH at 10% RH increments under a nitrogen purge. The equilibrium criterion used for analysis was less than 0.0100% weight change in 5 minutes with a maximum equilibration time of 3 hours. Data were not corrected for the initial moisture content of the samples.

[5] = Plasma concentration of SRR G-1 in rats after oral dosing (LC-MS/MS); assay type: in vivo; settings: rat, PO 10 mg/kg, individual animals (R1-R9)
Source text: The results are shown in Tables 22-24 for each respectively.

[6] = Disproportionation of salts in water slurry; assay type: physicochemical
Source text: The possibility of disproportionation in water was investigated. […] The excess solids were recovered and reanalyzed by XRPD for evidence of freebase or benzenesulfonic acid.
The possibility of disproportionation in water was investigated. […] The excess solids were recovered and reanalyzed by XRPD for evidence of freebase or naphthalene-2-sulfonic acid.

[7] = Physical stability of Form B (desolvation); assay type: physicochemical
Experimental: The physical stability of Form B was investigated. […] Vacuum at 70° C.

YUMM1.7 melanoma cells = experiment: YUMM1.7 proliferation assay (4 day growth); assay type: cell-based; settings: 500 nM
Experimental: YUMM1.7 cells were cultured for at least 1 passage after thawing and were cultured in DMEM with 5% FBS (Invitrogen) and 1% antibiotic-antimycotic (gibco) at 37C 5% CO2. Proliferation assays were performed by plating 15,000 cells in 12-well plates with 5 replicates per condition tested. Media and drugs were refreshed on Day 2. On Day 4, cells were trypsinized using 0.25 ml 0.05% Trypsin with EDTA (Invitrogen) for 5 minutes to detach from the plate, mixed with 0.75 ml of culture media, and counted using a hemocytometer.
Starting cell numbers were 15,000.

[8] = Physical stability of amorphous material; assay type: physicochemical
Experimental: Amorphous material crystallized to Form A upon exposure to either elevated temperature (within 4 days at 60° C.) or humidity (within 12 days at 75% RH).

Work on `CC(=O)c1ccc2c(c1)[C@@H]1C=CC[C@@H]1[C@H](c1cc3c(cc1Br)OCO3)N2` [SRR G-1 Form A, 1-((3aS,4R,9bR)-4-(6-bromobenzo[d][1,3]dioxol-5-yl)-3a,4,5,9b-tetrahydro-3H-cyclopenta[c]quinolin-8-yl)ethan-1-one] yielded a solubility ([1]; oil or lipid, sesame oil) of 2000 µg/mL (≈ 4850 µM), a solubility ([1]; organic solvent or mixture, ACN) of 24000 µg/mL (≈ 58200 µM) and a solubility ([1]; organic solvent or mixture, DCM) of over 89000 µg/mL. For the same compound, the solubility ([1]; organic solvent or mixture, DMSO) was over 203000 µg/mL, the solubility ([1]; organic solvent or mixture, EtOAc) was over 65000 µg/mL and the solubility ([1]; organic solvent or mixture, EtOH) was 7000 µg/mL (≈ 17000 µM). It also gave a solubility ([1]; organic solvent or mixture, IPA) of 4000 µg/mL (≈ 9700 µM), a solubility ([1]; organic solvent or mixture, MeOH) of 6000 µg/mL (≈ 14600 µM) and a solubility ([1]; organic solvent or mixture, THF) of over 67000 µg/mL. For the same compound, the solubility ([1]; organic solvent or mixture, acetone) was over 122000 µg/mL, the solubility ([1]; organic solvent or mixture, diethyl ether) was 8000 µg/mL (≈ 19400 µM) and the solubility ([1]; organic solvent or mixture, toluene) was 40000 µg/mL (≈ 97000 µM). The solubility ([1]; water) was under 2000 µg/mL, the solubility at 24 h ([2]; pH 2.0 buffer) was under 0.72 µg/mL and the solubility at 24 h ([2]; pH 3.0 buffer) was under 0.72 µg/mL. It also gave a solubility at 24 h ([2]; pH 4.0 buffer) of under 0.72 µg/mL, a solubility at 24 h ([2]; pH 5.0 buffer) of under 0.72 µg/mL and a solubility at 24 h ([2]; pH 6.0 buffer) of under 0.72 µg/mL. For the same compound, the solubility at 24 h ([2]; pH 7.0 buffer) was under 0.72 µg/mL, the solubility at 24 h ([2]; pH 8.0 buffer) was under 0.72 µg/mL and the “Form Conversion” value ([2]; pH 2.0 buffer) was “No”. For the same compound, the “Form Conversion” value ([2]; pH 3.0 buffer) was “No”, the “Form Conversion” value ([2]; pH 4.0 buffer) was “No” and the “Form Conversion” value ([2]; pH 5.0 buffer) was “No”. For the same compound, the “Form Conversion” value ([2]; pH 6.0 buffer) was “No”, the “Form Conversion” value ([2]; pH 7.0 buffer) was “No” and the “Form Conversion” value ([2]; pH 8.0 buffer) was “No”. For the same compound, the “FC (Form Change)” value ([3]; FaSSIF, 1 h) was “No”, the “FC (Form Change)” value ([3]; FaSSIF, 2 h) was “No” and the “FC (Form Change)” value ([3]; FaSSIF, 4 h) was “No”. The “FC (Form Change)” value ([3]; FaSSIF, 24 h) was “No”, the “FC (Form Change)” value ([3]; FeSSIF, 1 h) was “No” and the “FC (Form Change)” value ([3]; FeSSIF, 2 h) was “No”. The “FC (Form Change)” value ([3]; FeSSIF, 4 h) was “No”, the “FC (Form Change)” value ([3]; FeSSIF, 24 h) was “No” and the “Form Change” value ([3]; 1 h) was “No”. The “Form Change” value ([3]; 2 h) was “No”, the “Form Change” value ([3]; 4 h) was “No” and the “Form Change” value ([3]; 24 h) was “No”. It also gave a solubility at 1 h ([3]; simulated gastric fluid, SGF (pH 1.8), 1 h) of 5.9 µg/mL (≈ 14.3 µM), a solubility at 2 h ([3]; simulated gastric fluid, SGF (pH 1.8), 2 h) of 6.2 µg/mL (≈ 15 µM) and a solubility at 4 h ([3]; simulated gastric fluid, SGF (pH 1.8), 4 h) of 6.6 µg/mL (≈ 16 µM). The solubility at 24 h ([3]; simulated gastric fluid, SGF (pH 1.8), 24 h) was 5.7 µg/mL (≈ 13.8 µM), the solubility at 1 h ([3]; FaSSIF (pH 6.5), 1 h) was 7.1 µg/mL (≈ 17.2 µM) and the solubility at 2 h ([3]; FaSSIF (pH 6.5), 2 h) was 6.8 µg/mL (≈ 16.5 µM). The solubility at 4 h ([3]; FaSSIF (pH 6.5), 4 h) was 7.1 µg/mL (≈ 17.2 µM), the solubility at 24 h ([3]; FaSSIF (pH 6.5), 24 h) was 7.3 µg/mL (≈ 17.7 µM) and the solubility at 1 h ([3]; FeSSIF (pH 5.0), 1 h) was 36 µg/mL (≈ 87.3 µM). For the same compound, the solubility at 2 h ([3]; FeSSIF (pH 5.0), 2 h) was 37 µg/mL (≈ 89.7 µM), the solubility at 4 h ([3]; FeSSIF (pH 5.0), 4 h) was 38 µg/mL (≈ 92.2 µM) and the solubility at 24 h ([3]; FeSSIF (pH 5.0), 24 h) was 37 µg/mL (≈ 89.7 µM). For the same compound, the hygroscopicity ([4]; DVS isotherm) was “low hygroscopicity” and the “weight change through the sorption/desorption cycle” value ([4]; DVS, 5% to 95% RH) was “less than 0.3 % weight”.

For `CC(=O)c1ccc2c(c1)[C@@H]1C=CC[C@@H]1[C@H](c1cc3c(cc1Br)OCO3)N2.O=S(=O)(O)c1ccc2ccccc2c1` [SRR G-1 Napsylate Form A], the “Plasma Conc.” value ([5]; time 0.500 h) was 62.2 ng/mL and 50.6 ng/mL and 22.6 ng/mL, the “Plasma Conc.” value ([5]; time 1.00 h) was 81.9 ng/mL and 67.5 ng/mL and 33.2 ng/mL and the “Plasma Conc.” value ([5]; time 2.00 h) was 46.6 ng/mL and 39.9 ng/mL and 24.3 ng/mL. The “Plasma Conc.” value ([5]; time 4.00 h) was 14.6 ng/mL and 14.0 ng/mL and 15.6 ng/mL, the “Plasma Conc.” value ([5]; time 8.00 h) was 5.45 ng/mL and 6.09 ng/mL and 3.97 ng/mL and the “Plasma Conc.” value ([5]; time 24.0 h, LLOQ 0.100 ng/mL) was 0.641 ng/mL and 0.558 ng/mL and 0.435 ng/mL. The disproportionation in water ([6]; slurried in water for 5 days, XRPD of recovered solids (freebase Form A recovered)) was “disproportionation occurred”.

With `CC(=O)c1ccc2c(c1)[C@@H]1C=CC[C@@H]1[C@H](c1cc3c(cc1Br)OCO3)N2` [Form B, 1-((3aS,4R,9bR)-4-(6-bromobenzo[d][1,3]dioxol-5-yl)-3a,4,5,9b-tetrahydro-3H-cyclopenta[c]quinolin-8-yl)ethan-1-one] the desolvation ([7]; exposure to 90 to 100° C. for 25 minutes) was “Almost complete desolvation”, the desolvation ([7]; exposure to 120° C.) was “Complete desolvation to Form C” and the desolvation ([7]; vacuum at 70° C. (or below)) was “not sufficient for desolvation to occur”.

For `CC(=O)c1ccc2c(c1)[C@@H]1C=CC[C@@H]1[C@H](c1cc3c(cc1Br)OCO3)N2.O=S(=O)(O)c1ccccc1` [SRR G-1 Besylate Form A], the “Plasma Conc.” value ([5]; time 0.500 h) was 39.2 ng/mL and 35.2 ng/mL and 34.1 ng/mL, the “Plasma Conc.” value ([5]; time 1.00 h) was 43.9 ng/mL and 42.0 ng/mL and 44.5 ng/mL and the “Plasma Conc.” value ([5]; time 2.00 h) was 28.5 ng/mL and 30.6 ng/mL and 32.3 ng/mL. For the same compound, the “Plasma Conc.” value ([5]; time 4.00 h) was 20.0 ng/mL and 16.7 ng/mL and 19.5 ng/mL, the “Plasma Conc.” value ([5]; time 8.00 h) was 8.17 ng/mL and 5.78 ng/mL and 6.18 ng/mL and the “Plasma Conc.” value ([5]; time 24.0 h, LLOQ 0.100 ng/mL) was 0.837 ng/mL and 0.668 ng/mL and 0.647 ng/mL. The disproportionation in water ([6]; slurried in water for 4 days, XRPD of recovered solids) was “disproportionation did not occur”.

In the case of `CC(=O)c1ccc2c(c1)[C@@H]1C=CC[C@@H]1[C@H](c1cc3c(cc1Br)OCO3)N2` (racemic) [Racemic G-1, (±)1-(4-(6-bromobenzo[d][1,3]dioxol-5-yl)-(3 aS*,4R*,9bR*)-tetrahydro-3H-cyclopenta[c]quinolin-8-yl)ethan-1-one, reference compound], the “doubling compared with that seen with the vehicle” value (YUMM1.7 melanoma cells; 4 days) was “about half”, the Doublings (YUMM1.7 melanoma cells; 4 days, starting cell number 15,000) was 3.4 and the “cell count after 4 days of growth (single replicates)” value (YUMM1.7 melanoma cells; starting cell number 15,000, 5 replicates) was 16 tens of thousands and 18 tens of thousands and 19 tens of thousands and 17 tens of thousands and 24 tens of thousands. For the same compound, the “average cell count after 4 days of growth” value (YUMM1.7 melanoma cells; starting cell number 15,000, average of 5 replicates) was 18.8 tens of thousands.

For `CC(=O)c1ccc2c(c1)[C@@H]1C=CC[C@@H]1[C@H](c1cc3c(cc1Br)OCO3)N2` [Amorphous material], the “time to crystallization to Form A” value ([8]; elevated temperature, 60° C.) was at most 4 days and the “time to crystallization to Form A” value ([8]; humidity, 75% RH) was at most 12 days.
